Laboratory results reported in paper PMC12406721, “Chronic integrated stress response causes dysregulated cholesterol synthesis in white matter disease” (JCI Insight, 2025).

How the values were obtained:
[1] = molecular target: T1, eIF2B (Mus musculus, UniProt Q61749+Q99LD9); experiment: 2BAct dose response in N208Y cells (read-out only in supplement); format: cell-based; settings: activator, cell line not restated, read-out not told in main text
T1 construct: gene Eif2b2; endogenous complex in MIN-6 cells or their lysate; decamer α2β2δ2(γε)2; alpha subunit strongly depleted in N208Y cells (mostly octamer β2δ2γ2ε2); with Translation initiation factor eIF2B subunit alpha; Translation initiation factor eIF2B subunit gamma; Translation initiation factor eIF2B subunit epsilon
T1 sequence (Q99LD9 whole entry): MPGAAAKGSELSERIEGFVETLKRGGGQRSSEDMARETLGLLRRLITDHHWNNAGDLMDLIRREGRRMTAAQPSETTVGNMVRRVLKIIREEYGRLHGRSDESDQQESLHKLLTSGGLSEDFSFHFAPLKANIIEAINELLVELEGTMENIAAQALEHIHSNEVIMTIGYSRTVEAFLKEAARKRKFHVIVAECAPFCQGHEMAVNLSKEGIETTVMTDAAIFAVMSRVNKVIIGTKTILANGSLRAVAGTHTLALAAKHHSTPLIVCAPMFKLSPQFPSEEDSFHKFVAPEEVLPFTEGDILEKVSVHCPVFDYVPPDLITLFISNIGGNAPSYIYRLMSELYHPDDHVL
T1 sequence (Q61749 2-524): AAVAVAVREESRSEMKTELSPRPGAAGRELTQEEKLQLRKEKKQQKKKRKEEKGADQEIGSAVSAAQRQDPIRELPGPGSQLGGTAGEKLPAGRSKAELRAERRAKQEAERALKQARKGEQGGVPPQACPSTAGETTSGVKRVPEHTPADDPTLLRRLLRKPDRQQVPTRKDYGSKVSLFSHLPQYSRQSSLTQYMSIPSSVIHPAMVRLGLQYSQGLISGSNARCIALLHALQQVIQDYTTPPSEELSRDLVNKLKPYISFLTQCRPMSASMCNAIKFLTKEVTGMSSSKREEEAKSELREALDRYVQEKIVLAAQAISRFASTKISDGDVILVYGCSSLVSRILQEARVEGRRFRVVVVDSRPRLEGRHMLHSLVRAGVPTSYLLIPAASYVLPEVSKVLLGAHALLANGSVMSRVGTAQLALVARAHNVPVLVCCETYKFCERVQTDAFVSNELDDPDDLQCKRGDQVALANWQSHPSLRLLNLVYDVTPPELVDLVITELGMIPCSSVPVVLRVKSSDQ
T1 sequence (Q99LC8 whole entry N208Y partner): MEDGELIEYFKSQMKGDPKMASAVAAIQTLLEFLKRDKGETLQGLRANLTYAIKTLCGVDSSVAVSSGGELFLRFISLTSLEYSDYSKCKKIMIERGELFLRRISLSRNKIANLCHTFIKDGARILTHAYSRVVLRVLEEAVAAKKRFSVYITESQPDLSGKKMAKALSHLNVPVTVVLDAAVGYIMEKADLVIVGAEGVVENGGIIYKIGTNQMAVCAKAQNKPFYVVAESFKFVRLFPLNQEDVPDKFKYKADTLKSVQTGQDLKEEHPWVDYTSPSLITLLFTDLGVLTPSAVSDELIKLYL
T1 sequence (Q8CHW4 whole entry partner): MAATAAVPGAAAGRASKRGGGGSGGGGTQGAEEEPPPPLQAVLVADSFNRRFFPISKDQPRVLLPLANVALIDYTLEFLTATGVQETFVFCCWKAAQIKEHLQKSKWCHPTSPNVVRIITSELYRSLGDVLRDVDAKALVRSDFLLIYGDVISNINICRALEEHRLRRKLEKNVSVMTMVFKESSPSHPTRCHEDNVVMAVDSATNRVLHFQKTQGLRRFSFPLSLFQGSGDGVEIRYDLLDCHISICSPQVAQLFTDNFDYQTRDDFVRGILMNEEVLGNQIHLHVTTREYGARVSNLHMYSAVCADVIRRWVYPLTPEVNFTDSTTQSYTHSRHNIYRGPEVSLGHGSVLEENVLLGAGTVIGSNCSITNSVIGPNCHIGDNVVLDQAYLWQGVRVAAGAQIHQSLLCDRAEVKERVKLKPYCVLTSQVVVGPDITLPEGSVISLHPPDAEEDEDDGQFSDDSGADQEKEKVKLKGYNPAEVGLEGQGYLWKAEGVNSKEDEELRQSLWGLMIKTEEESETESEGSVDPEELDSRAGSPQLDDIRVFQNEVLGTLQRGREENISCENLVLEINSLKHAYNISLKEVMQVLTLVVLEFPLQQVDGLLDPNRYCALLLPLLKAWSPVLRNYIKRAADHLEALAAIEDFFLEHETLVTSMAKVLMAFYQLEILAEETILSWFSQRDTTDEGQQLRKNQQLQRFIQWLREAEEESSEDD

[2] = molecular target: T2, eIF2B-α (Homo sapiens, UniProt Q14232); experiment: NanoDSF thermal unfolding; format: binding; settings: stabilises; concentration not told in main text
T2 construct: gene EIF2B1; purified recombinant alpha subunit, homodimer
T2 sequence (Q14232 1-305): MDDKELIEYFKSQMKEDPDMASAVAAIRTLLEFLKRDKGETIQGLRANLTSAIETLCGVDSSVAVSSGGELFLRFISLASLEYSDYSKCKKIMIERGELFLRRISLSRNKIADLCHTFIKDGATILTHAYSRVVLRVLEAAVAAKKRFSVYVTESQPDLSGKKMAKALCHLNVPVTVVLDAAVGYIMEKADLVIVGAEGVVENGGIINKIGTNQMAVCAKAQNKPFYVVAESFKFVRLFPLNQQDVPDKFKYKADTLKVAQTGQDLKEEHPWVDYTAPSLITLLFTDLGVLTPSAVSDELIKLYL

SMILES	EC50 [1] [nM]	Tm [2]
O=C(COc1ccc(Cl)c(F)c1)NC12CC(NC(=O)c3cnc(C(F)F)cn3)(C1)C2 [2BAct]	27.8	–
O=P(O)(O)OC[C@H]1OC(O)(CO)[C@@H](O)[C@@H]1O (some centres unmarked) [fructose-6-phosphate]	–	addition of F6P further increased the stability of WT eIF2B-α
